Assay results taken from ChEMBL document CHEMBL2157888, “The therapeutic journey of benzimidazoles: a review” (Bioorg Med Chem, 2012).
Converted amounts (≈) assume the structure as drawn.

Columns and labels:
[1] = biological target: T1, Gonadotropin-releasing hormone receptor (Homo sapiens, UniProt P30968); assay: Inhibition of GnRH receptor
T1 sequence (P30968 whole entry): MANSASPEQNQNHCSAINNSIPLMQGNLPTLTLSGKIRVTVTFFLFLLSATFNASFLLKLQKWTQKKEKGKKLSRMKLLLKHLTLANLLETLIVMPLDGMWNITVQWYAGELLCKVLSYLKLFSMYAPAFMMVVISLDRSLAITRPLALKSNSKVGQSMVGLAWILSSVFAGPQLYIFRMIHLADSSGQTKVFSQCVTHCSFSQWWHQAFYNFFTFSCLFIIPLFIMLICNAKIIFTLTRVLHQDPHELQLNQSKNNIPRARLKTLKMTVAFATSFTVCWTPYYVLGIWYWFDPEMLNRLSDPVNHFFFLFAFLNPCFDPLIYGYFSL

[2] = Aqueous solubility of the compound; format: physicochemical; conditions: water (aqueous)
[3] = biological target: T2, C-C chemokine receptor type 3 (Homo sapiens, UniProt P51677); assay: Inhibition of CCR3 receptor
T2 sequence (P51677 whole entry): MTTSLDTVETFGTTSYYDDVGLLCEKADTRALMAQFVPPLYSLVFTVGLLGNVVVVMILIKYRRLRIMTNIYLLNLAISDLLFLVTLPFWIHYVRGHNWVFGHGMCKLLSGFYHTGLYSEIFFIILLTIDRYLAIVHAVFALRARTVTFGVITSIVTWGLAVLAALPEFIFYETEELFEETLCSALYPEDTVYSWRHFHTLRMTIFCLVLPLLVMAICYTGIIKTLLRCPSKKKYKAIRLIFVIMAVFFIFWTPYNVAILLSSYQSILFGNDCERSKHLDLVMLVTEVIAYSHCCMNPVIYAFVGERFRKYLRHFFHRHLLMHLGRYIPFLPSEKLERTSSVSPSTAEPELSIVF

For `CCc1cc(CN2CCN(c3cccc4[nH]c(-c5ccc(C(C)(C)C)cc5)nc34)CC2)nn1C`, which IC50 [1] is on record?
Its IC50 is 7 nM.

What about the solubility [2] of the same compound?
The solubility was 55 µg/mL (≈ 120 µM).

Which solubility [2] does the source give for `CCCn1cc(CN2CCN(c3cccc4[nH]c(-c5ccc(C(C)(C)C)cc5)nc34)CC2)nc1C` here?
Its solubility is 100 µg/mL (≈ 212 µM).

Which Ki [3] does the source give for `Fc1ccc(SCCCN2CCC(n3c(CC(F)(F)F)nc4cc(F)ccc43)CC2)cc1` here?
Its Ki is 9 nM.

With `Fc1ccc2c(c1)nc(CC(F)(F)F)n2C1CCNCC1` as the compound, how does the Ki [3] read?
Its Ki is 100 nM.
